Each structure is given as a SMILES string. Bounds are passed on as bounds.

Among the data in US7989438B2, “Therapeutic compounds” (Istituto di Ricerche di Biologia Molecolare P. Angeletti SpA, priority 2007, dated 2011) are IC50 values, retold here.

This test has as its system HCV subgenomic replication. The experiment in a line: Cell based HCV replication assay (subgenomic replicon in Huh-7 cells, NS3 Cell-ELISA). Conditions: Table 2, various macrocycles; activity ranges; read-out: IC50* (nM), Inhibition of HCV subgenomic replication. Put shortly: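 Huh-7 cells stably carrying the I377neo/NS3-3′/wt subgenomic replicon, seeded at 10^4 cells/well in DMEM/10% FCS and exposed to inhibitor for 96 h. NS3 expression was measured by Cell-ELISA (mAb 10E5/24, alkaline phosphatase, absorbance 405/620 nm), in duplicate. IC50 was fitted to the Hill equation, with background from parental Huh-7 cells.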

A word on the IC50: it is the concentration that inhibits the measured activity by half. Take `CN1CCN(C)C2COc3ccc(F)cc3-c3c(C4CCCCC4)c4ccc(cc4n3C2)C(=O)NS(=O)(=O)N(C)CC1` [Example 202, (7R)-14-cyclohexyl-2-fluoro-18,21,24-trimethyl-7,8-dihydro-6H-7,11-(epiminoethanoiminoethanoiminothioiminomethano)-indolo[1,2-e][1,5]benzoxazocin-15-one 17,17-dioxide]: the IC50 is under 25 nM. For `CCN1CCN(C)C2COc3cc(F)ccc3-c3c(C4CCCCC4)c4ccc(cc4n3C2)C(=O)NS(=O)(=O)N(C)CC1` [Example 203, (7R)-14-cyclohexyl-21-ethyl-3-fluoro-18,24-dimethyl-7,8-dihydro-6H-7,11-(epiminoethanoiminoethanoiminothioiminomethano)-indolo[1,2-e][1,5]benzoxazocin-15-one 17,17-dioxide] the value was under 25 nM; for `CCN1CCNC2COc3cc(F)ccc3-c3c(C4CCCCC4)c4ccc(cc4n3C2)C(=O)NS(=O)(=O)N(C)CC1` [Example 204, (7R)-14-cyclohexyl-21-ethyl-3-fluoro-18-methyl-7,8-dihydro-6H-7,11-(epiminoethanoiminoethanoiminothioiminomethano)-indolo[1,2-e][1,5]benzoxazocin-15-one 17,17-dioxide], 25 to 150 nM; for `CCN1CCN(C)C2COc3ccc(F)cc3-c3c(C4CCCCC4)c4ccc(cc4n3C2)C(=O)NS(=O)(=O)N(C)CC1` [Example 205, (7R)-14-cyclohexyl-21-ethyl-2-fluoro-18,24-dimethyl-7,8-dihydro-6H-7,11-(epiminoethanoiminoethanoiminothioiminomethano)-indolo[1,2-e][1,5]benzoxazocin-15-one 17,17-dioxide], under 25 nM. The figure for `CCN1CCN(Cc2cccnc2)C2COc3ccc(F)cc3-c3c(C4CCCCC4)c4ccc(cc4n3C2)C(=O)NS(=O)(=O)N(C)CC1` [Example 206, (7R)-14-cyclohexyl-21-ethyl-2-fluoro-18-methyl-24-(pyridin-3-ylmethyl)-7,8-dihydro-6H-7,11-(epiminoethanoiminoethanoiminothioiminomethano)-indolo[1,2-e][1,5]benzoxazocin-15-one 17,17-dioxide] is under 25 nM. `CC(C)N1CCN(C)[C@H]2COc3cc(F)ccc3-c3c(C4CCCCC4)c4ccc(cc4n3C2)C(=O)NS(=O)(=O)N(C)CC1` [Example 207, (7R)-14-cyclohexyl-3-fluoro-21-isopropyl-18,24-dimethyl-7,8-dihydro-6H-7,11-(epiminoethanoiminoethanoiminothioiminomethano)-indolo[1,2-e][1,5]benzoxazocin-15-one 17,17-dioxide]: the IC50 was under 25 nM. With `CCN1CCN(CCNC)C2COc3cc(F)ccc3-c3c(C4CCCCC4)c4ccc(cc4n3C2)C(=O)NS(=O)(=O)N(C)CC1` [Example 208, (7R)-14-cyclohexyl-21-ethyl-3-fluoro-18-methyl-24-[2-(methylamino)ethyl]-7,8-dihydro-6H-7,11-(epiminoethanoiminoethanoiminothioiminomethano)-indolo[1,2-e][1,5]benzoxazocin-15-one 17,17-dioxide], the IC50 fell in the range of 25 to 150 nM. For `CC(C)N1CCN(C)C2COc3ccc(F)cc3-c3c(C4CCCCC4)c4ccc(cc4n3C2)C(=O)NS(=O)(=O)N(C)CC1` [Example 209, (7R)-14-cyclohexyl-2-fluoro-21-isopropyl-18,24-dimethyl-7,8-dihydro-6H-7,11-(epiminoethanoiminoethanoiminothioiminomethano)-indolo[1,2-e][1,5]benzoxazocin-15-one 17,17-dioxide] the value was under 25 nM.

With `CCN1CCN(C)C2COc3cc(OC)ccc3-c3c(C4CCCCC4)c4ccc(cc4n3C2)C(=O)NS(=O)(=O)N(C)CC1` [Example 210, (7R)-14-cyclohexyl-21-ethyl-3-methoxy-18,24-dimethyl-7,8-dihydro-6H-7,11-(epiminoethanoiminoethanoiminothioiminomethano)-indolo[1,2-e][1,5]benzoxazocin-15-one 17,17-dioxide], the IC50 is under 25 nM.

In the case of `CCN1CCN(C)[C@H]2COc3cc(OCc4ccccn4)ccc3-c3c(C4CCCCC4)c4ccc(cc4n3C2)C(=O)NS(=O)(=O)N(C)CC1` [Example 211, (7R)-14-cyclohexyl-21-ethyl-18,24-dimethyl-3-(pyridin-2-ylmethoxy)-7,8-dihydro-6H-7,11-(epiminoethanoiminoethanoiminothioiminomethano)-indolo[1,2-e][1,5]benzoxazocin-15-one 17,17-dioxide], the IC50 is under 25 nM. `CCCc1cccc2c1OCC1Cn3c-2c(C2CCCCC2)c2ccc(cc23)C(=O)NS(=O)(=O)N(C)CCN(C)CCN1C` [Example 212, (7R)-14-cyclohexyl-18,21,24-trimethyl-4-propyl-7,8-dihydro-6H-7,11-(epiminoethanoiminoethanoiminothioiminomethano)-indolo[1,2-e][1,5]benzoxazocin-15-one 17,17-dioxide]: the IC50 is 25 to 150 nM. Turning to `CCCc1cccc2c1OCC1Cn3c-2c(C2CCCCC2)c2ccc(cc23)C(=O)NS(=O)(=O)N(C)CCN(C(C)C)CCN1C` [Example 213, (7R)-14-cyclohexyl-21-isopropyl-18,24-dimethyl-4-propyl-7,8-dihydro-6H-7,11-(epiminoethanoiminoethanoiminothioiminomethano)-indolo[1,2-e][1,5]benzoxazocin-15-one 17,17-dioxide], the IC50 is 25 to 150 nM. Take `CCN1CCN(CCO)[C@H]2COc3cc(C)ccc3-c3c(C4CCCCC4)c4ccc(cc4n3C2)C(=O)NS(=O)(=O)N(C)CC1` [Example 214, (7R)-14-cyclohexyl-21-ethyl-24-(2-hydroxyethyl)-3,18-dimethyl-7,8-dihydro-6H-7,11-(epiminoethanoiminoethanoiminothioiminomethano)-indolo[1,2-e][1,5]benzoxazocin-15-one 17,17-dioxide]: the IC50 is under 25 nM. The figure for `CCN1CCN(C)[C@H]2COc3cc(C)ccc3-c3c(C4CCCCC4)c4ccc(cc4n3C2)C(=O)NS(=O)(=O)N(C)CC1` [Example 215, (7R)-14-cyclohexyl-21-ethyl-3,18,24-trimethyl-7,8-dihydro-6H-7,11-(epiminoethanoiminoethanoiminothioiminomethano)-indolo[1,2-e][1,5]benzoxazocin-15-one 17,17-dioxide] is under 25 nM; for `Cc1ccc2c(c1)OCC1Cn3c-2c(C2CCCCC2)c2ccc(cc23)C(=O)NS(=O)(=O)N(C)CCN(C)CCN1C` [Example 216, (7R)-14-cyclohexyl-3,18,21,24-tetramethyl-7,8-dihydro-6H-7,11-(epiminoethanoiminoethanoiminothioiminomethano)-indolo[1,2-e][1,5]benzoxazocin-15-one 17,17-dioxide] it is under 25 nM; for `CCN1CCN(CCN(C)C)C2COc3ccccc3-c3c(C4CCCCC4)c4ccc(cc4n3C2)C(=O)NS(=O)(=O)N(C)CC1` [Example 217, (7R)-14-cyclohexyl-24-[2-(dimethylamino)ethyl]-21-ethyl-18-methyl-7,8-dihydro-6H-7,11-(epiminoethanoiminoethanoiminothioiminomethano)-indolo[1,2-e][1,5]benzoxazocin-15-one 17,17-dioxide] it is under 25 nM.
